Laboratory results from ChEMBL document CHEMBL1126890, “A tight binding inhibitor of 5-aminoimidazole ribonucleotide carboxylase” (J Med Chem, 1993).

What was measured:
Set-up in all cases: species or system Aves
[1] = Kobs versus inhibitory concentration
[2] = Inhibition of Avian AIR carboxylase in presence of 0.5 nM of the compound
[3] = Changes in free energy concentration

## Nc1c([N+](=O)[O-])ncn1[C@@H]1O[C@H](COP(=O)(O)O)[C@@H](O)[C@H]1O
[1]
  Ki: 1.4 nM
[2]
  Ki: 1.3 nM
[3]
  Ki: 1.6 nM
